{"source": "patent US5756467A", "about": "“Adipocyte differentiation inhibiting peptide and adipocyte differentiation inhibiting agent using the peptide as active component thereof” (Itoham Foods Inc., priority 1993, dated 1998)", "key": {"adipose tissue": {"tested_on": "adipose tissue", "assay": "Effect of globin proteolysate on increase of adipose tissue, mice on 50% fat feed (Test 4)", "assay_type": "in vivo", "conditions": "50% fat feed + Clenbuterol 2 ppm", "text": "Then, mice were allowed to ingest freely 50% fat feed and then tested for weight of adipose tissue and cell number."}, "[1]": {"tested_on": "cells in the subcutaneous adipose tissue", "assay": "Effect of globin proteolysate on distribution of adipose tissue cells (Test 4)", "assay_type": "in vivo, mice", "conditions": "50% fat feed + Clenbuterol 2 ppm", "text": "The cell number in adipose tissues shown in Table 7 represent the values including adipocytes, preadipocytes, fibroblasts, blood vessel cells, etc. The cells in the subcutaneous adipose tissue were investigated in detail as sorted into matured adipocytes, immatured adipocytes, and interstitial cells (stroma).\nIt is clearly noted from Table 8 showing the results of the investigation that particularly the differentiation of fibro-blasts in the group of interstitial cells represented as stromas to preadipocytes was repressed."}, "Swiss mouse 3T3-L1 cells": {"tested_on": "Swiss mouse 3T3-L1 cells", "assay": "Adipocyte differentiation of preadipocytes in vitro, GPDH activity as marker enzyme (Tests 1 and 2)", "assay_type": "cell-based", "conditions": "for action to inhibit the GPDH activity: treatment before and after the induction of differentiation, depending on the peptide concentration", "procedure": "(1) Treatment before induction of differentiation\nSwiss mouse 3T3-L1 cells were inoculated at a density of about 3×10^4 cells/ml to a cell culturing dish. A Dulbecco modified Eagle culture medium (DMEM) containing bovine fetal blood serum incorporated therein at a concentration of 10% was used as the culture medium. The culture was invariably carried out in an ambience of 5% CO2 and 95% of air at 37° C.\nAfter a monolayer of cells was formed, the cell layer surface was washed with a phosphate buffer physiological salt solution (PBS). In the presence of culture media containing the CD and the fraction A respectively at concentration of 0, 2, 4, and 8 mg/ml and at concentration of 0, 20, 40, and 80 μg/ml, the cell layer was cultured. Then, the cell layer surface was washed with PBS and the cell layer was cultured for two days in the presence of a culture medium incorporating therein the differentiation inducing substance (0.25 μM of dexamethasone, […] of a-methyl-3-isobutyl xanthine, and 10 μg/ml insulin).\nSubsequently, the cell layer was deprived of the culture medium containing the differentiation-inducing substance. The cell layer surface was washed likewise with PBS and the cell layer was cultured for about one week in the presence of a culture medium incorporating insulin therein at a concentration of 10 μg/ml.\nThe effect of the fraction A on the adipocyte differentiation was rated by determining the glycerol-3-phosphate dehydrogenase activity (GPDH) by the well-known method as a marker enzyme.\n(2) Treatment after induction of differentiation\nSwiss mouse 3T3-L1 cells were cultured by the same method as in (1) mentioned above and then tested for GPDH activity, providing that the culture medium containing insulin at a concentration of 10 μg/ml was added to the GD and the fraction A after the removal of the culture medium containing the differentiation inducing substance.\n[Test 2] Differentiation inhibiting effect of adipocyte differentiation inhibiting peptide (chemical synthesis product) on preadipocytes (in vitro)\nThe effects of the chemically synthesized H-Val-Thr-Leu-OH and the H-Val-Tyr-Pro-OH obtained by the same method as in Example 5 on Swiss mouse 3T3-L1 cells in were investigated by the same method as in Example 5. […]"}, "[2]": {"tested_on": "adipocytes in adipose tissue", "assay": "Effect of synthetic peptides on increase of cell number in murine adipose tissue (Test 3)", "assay_type": "in vivo, mice", "conditions": "50% fat meal + 20 ppm peptide", "procedure": "[Test 3] Effect of adipocyte differentiation inhibiting peptide (chemical synthesis product) (in vivo)\nThe two adipocyte differentiation inhibiting peptides of the invention, Val-Thr-Leu and Val-Tyr-Pro, synthesized by the method shown in Example 5 were tested for effect on increase of adipocytes (in vivo). The test was performed by the same method as in Test 1 using globin proteolysate."}, "[3]": {"conditions": "Peptide 0.2 mg/ml, treatment after induction of differentiation (48 hours)"}, "[4]": {"conditions": "Peptide 0.2 mg/ml, treatment before induction of differentiation (48 hours)"}, "[5]": {"conditions": "Peptide 0.4 mg/ml, treatment after induction of differentiation (48 hours)"}, "[6]": {"conditions": "Peptide 0.4 mg/ml, treatment before induction of differentiation (48 hours)"}, "[7]": {"conditions": "Peptide 0.8 mg/ml, treatment after induction of differentiation (48 hours)"}, "[8]": {"conditions": "Peptide 0.8 mg/ml, treatment before induction of differentiation (48 hours)"}}, "note": "Residues, ends and D or L forms follow the SMILES beside them."}
{"smiles": "CC(C)(C)NCC(O)c1cc(Cl)c(N)c(Cl)c1", "note": "(centres unmarked) [Clenbuterol]", "values": [{"measurement": "Number of adipocytes, Epididymal adipose tissue", "setting": "adipose tissue", "result": "79 ± 7", "unit": "DNA μg/adipose tissue"}, {"measurement": "Number of adipocytes, Retroperitoneal adipose tissue", "setting": "adipose tissue", "result": "18 ± 2", "unit": "DNA μg/adipose tissue"}, {"measurement": "Number of adipocytes, Subcutaneous adipose tissue", "setting": "adipose tissue", "result": "96 ± 8", "unit": "DNA μg/adipose tissue"}, {"measurement": "weight of adipose tissue, Epididymal adipose tissue", "setting": "adipose tissue", "result": "0.97 ± .11 g"}, {"measurement": "weight of adipose tissue, Retroperitoneal adipose tissue", "setting": "adipose tissue", "result": "0.28 ± .04 g"}, {"measurement": "weight of adipose tissue, Subcutaneous adipose tissue", "setting": "adipose tissue", "result": "1.49 ± .22 g"}, {"measurement": "Adipocyte", "setting": "[1]", "result": 30}, {"measurement": "Preadipoytes", "setting": "[1]", "result": 30}, {"measurement": "Stroma", "setting": "[1]", "result": 36}]}
{"smiles": "CC(C)C[C@H](NC(=O)[C@@H](NC(=O)[C@@H](N)C(C)C)[C@@H](C)O)C(=O)O", "note": "[Val-Thr-Leu, H-Val-Thr-Leu-OH] (H-Val-Thr-Leu-OH)", "values": [{"measurement": "GDPH activity", "setting": "Swiss mouse 3T3-L1 cells; [3]", "result": "463.2 ± 29.7", "unit": "mU/mg protein"}, {"measurement": "Ratio of Inhibition", "setting": "Swiss mouse 3T3-L1 cells; [3]", "result": 35.5, "unit": "%"}, {"measurement": "GDPH activity", "setting": "Swiss mouse 3T3-L1 cells; [4]", "result": "102.5 ± 19.6", "unit": "mU/mg protein"}, {"measurement": "Ratio of Inhibition", "setting": "Swiss mouse 3T3-L1 cells; [4]", "result": 82.1, "unit": "%"}, {"measurement": "GDPH activity", "setting": "Swiss mouse 3T3-L1 cells; [5]", "result": "281.1 ± 19.6", "unit": "mU/mg protein"}, {"measurement": "Ratio of Inhibition", "setting": "Swiss mouse 3T3-L1 cells; [5]", "result": 60.8, "unit": "%"}, {"measurement": "GDPH activity", "setting": "Swiss mouse 3T3-L1 cells; [6]", "result": "8.1 ± 1.6", "unit": "mU/mg protein"}, {"measurement": "Ratio of Inhibition", "setting": "Swiss mouse 3T3-L1 cells; [6]", "result": 98.6, "unit": "%"}, {"measurement": "GDPH activity", "setting": "Swiss mouse 3T3-L1 cells; [7]", "result": "13.8 ± 5.4", "unit": "mU/mg protein"}, {"measurement": "Ratio of Inhibition", "setting": "Swiss mouse 3T3-L1 cells; [7]", "result": 98.1, "unit": "%"}, {"measurement": "GDPH activity", "setting": "Swiss mouse 3T3-L1 cells; [8]", "result": "6.3 ± 1.9", "unit": "mU/mg protein"}, {"measurement": "Ratio of Inhibition", "setting": "Swiss mouse 3T3-L1 cells; [8]", "result": 98.9, "unit": "%"}, {"measurement": "action to inhibit the GPDH activity", "setting": "Swiss mouse 3T3-L1 cells", "result": "conspicuous action to inhibit the GPDH activity"}, {"measurement": "Number of adipocytes, Epididymal adipose tissue", "setting": "[2]", "result": 88, "unit": "DNA μg/adipose tissue"}, {"measurement": "Number of adipocytes, Retroperitoneal adipose tissue", "setting": "[2]", "result": 23, "unit": "DNA μg/adipose tissue"}, {"measurement": "Number of adipocytes, Subcutaneous adipose tissue", "setting": "[2]", "result": 102, "unit": "DNA μg/adipose tissue"}]}
{"smiles": "CC(C)[C@H](N)C(=O)N[C@@H](Cc1ccc(O)cc1)C(=O)N1CCC[C@H]1C(=O)O", "note": "[Val-Tyr-Pro, H-Val-Tyr-Pro-OH] (H-Val-Tyr-Pro-OH)", "values": [{"measurement": "GDPH activity", "setting": "Swiss mouse 3T3-L1 cells; [3]", "result": "412.6 ± 20.3", "unit": "mU/mg protein"}, {"measurement": "Ratio of Inhibition", "setting": "Swiss mouse 3T3-L1 cells; [3]", "result": 42.5, "unit": "%"}, {"measurement": "GDPH activity", "setting": "Swiss mouse 3T3-L1 cells; [4]", "result": "106.7 ± 28.1", "unit": "mU/mg protein"}, {"measurement": "Ratio of Inhibition", "setting": "Swiss mouse 3T3-L1 cells; [4]", "result": 83.0, "unit": "%"}, {"measurement": "GDPH activity", "setting": "Swiss mouse 3T3-L1 cells; [5]", "result": "197.3 ± 27.5", "unit": "mU/mg protein"}, {"measurement": "Ratio of Inhibition", "setting": "Swiss mouse 3T3-L1 cells; [5]", "result": 72.5, "unit": "%"}, {"measurement": "GDPH activity", "setting": "Swiss mouse 3T3-L1 cells; [6]", "result": "10.6 ± 2.3", "unit": "mU/mg protein"}, {"measurement": "Ratio of Inhibition", "setting": "Swiss mouse 3T3-L1 cells; [6]", "result": 98.5, "unit": "%"}, {"measurement": "GDPH activity", "setting": "Swiss mouse 3T3-L1 cells; [7]", "result": "14.7 ± 2.7", "unit": "mU/mg protein"}, {"measurement": "Ratio of Inhibition", "setting": "Swiss mouse 3T3-L1 cells; [7]", "result": 98.0, "unit": "%"}, {"measurement": "GDPH activity", "setting": "Swiss mouse 3T3-L1 cells; [8]", "result": "7.8 ± 1.5", "unit": "mU/mg protein"}, {"measurement": "Ratio of Inhibition", "setting": "Swiss mouse 3T3-L1 cells; [8]", "result": 98.7, "unit": "%"}, {"measurement": "action to inhibit the GPDH activity", "setting": "Swiss mouse 3T3-L1 cells", "result": "conspicuous action to inhibit the GPDH activity"}, {"measurement": "Number of adipocytes, Epididymal adipose tissue", "setting": "[2]", "result": 102, "unit": "DNA μg/adipose tissue"}, {"measurement": "Number of adipocytes, Retroperitoneal adipose tissue", "setting": "[2]", "result": 27, "unit": "DNA μg/adipose tissue"}, {"measurement": "Number of adipocytes, Subcutaneous adipose tissue", "setting": "[2]", "result": 125, "unit": "DNA μg/adipose tissue"}]}
